The subject of data set [1] is HeLa cells. The data set is described as follows: Cytotoxicity in HeLa cells. It counts as cell-based. As to conditions: 10 μM.
Data set [2] has as its target T1, ARTD15/PARP16 (Homo sapiens, UniProt Q8N5Y8).
T1 sequence (Q8N5Y8 94-279 limits assumed): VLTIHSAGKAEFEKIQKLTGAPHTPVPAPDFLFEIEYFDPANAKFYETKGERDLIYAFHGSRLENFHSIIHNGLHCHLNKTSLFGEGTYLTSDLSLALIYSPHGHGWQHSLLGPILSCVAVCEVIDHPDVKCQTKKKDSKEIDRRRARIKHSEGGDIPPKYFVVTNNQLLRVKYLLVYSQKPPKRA
Nature of the data set: Differential scanning fluorimetry, ARTD15.

Data set [3] concerns the target T2, ARTD5/PARP5a (Homo sapiens, UniProt O95271).
T2 construct: made in house; host or cells: E. coli
T2 sequence (O95271 1-1327): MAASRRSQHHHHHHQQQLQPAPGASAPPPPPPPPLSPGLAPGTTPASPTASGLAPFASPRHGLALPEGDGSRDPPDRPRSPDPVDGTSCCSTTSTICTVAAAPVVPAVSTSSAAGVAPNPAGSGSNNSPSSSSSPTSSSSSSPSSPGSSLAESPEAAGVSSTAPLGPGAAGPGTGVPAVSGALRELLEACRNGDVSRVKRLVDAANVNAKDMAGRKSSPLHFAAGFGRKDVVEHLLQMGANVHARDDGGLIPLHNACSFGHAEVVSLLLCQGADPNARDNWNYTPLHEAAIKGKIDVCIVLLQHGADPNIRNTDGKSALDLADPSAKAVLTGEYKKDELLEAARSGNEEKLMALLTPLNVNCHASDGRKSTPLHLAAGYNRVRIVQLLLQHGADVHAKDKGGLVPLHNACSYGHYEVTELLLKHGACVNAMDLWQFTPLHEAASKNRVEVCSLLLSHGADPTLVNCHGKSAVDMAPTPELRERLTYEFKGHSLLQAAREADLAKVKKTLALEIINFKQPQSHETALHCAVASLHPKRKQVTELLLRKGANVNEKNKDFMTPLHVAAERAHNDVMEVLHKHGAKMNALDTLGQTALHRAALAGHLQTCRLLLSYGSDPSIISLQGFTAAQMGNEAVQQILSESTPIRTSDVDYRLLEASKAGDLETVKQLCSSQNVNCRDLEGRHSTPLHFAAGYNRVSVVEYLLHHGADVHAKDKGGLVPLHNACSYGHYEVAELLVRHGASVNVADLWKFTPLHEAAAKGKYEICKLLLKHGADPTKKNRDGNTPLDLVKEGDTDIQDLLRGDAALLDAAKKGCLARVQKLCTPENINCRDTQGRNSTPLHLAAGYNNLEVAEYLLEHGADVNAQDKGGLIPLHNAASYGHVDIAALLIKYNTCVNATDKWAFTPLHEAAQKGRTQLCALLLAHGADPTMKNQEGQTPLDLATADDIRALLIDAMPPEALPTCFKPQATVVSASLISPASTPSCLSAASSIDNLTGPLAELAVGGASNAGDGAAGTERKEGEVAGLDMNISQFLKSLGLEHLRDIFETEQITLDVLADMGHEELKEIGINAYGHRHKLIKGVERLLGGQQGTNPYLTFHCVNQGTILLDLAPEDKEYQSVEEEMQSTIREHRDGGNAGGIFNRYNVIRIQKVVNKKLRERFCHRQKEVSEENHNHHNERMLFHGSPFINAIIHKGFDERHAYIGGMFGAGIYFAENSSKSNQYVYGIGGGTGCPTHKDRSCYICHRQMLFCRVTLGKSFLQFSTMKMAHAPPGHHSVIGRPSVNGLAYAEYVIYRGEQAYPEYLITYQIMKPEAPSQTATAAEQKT
The data set is described as follows: Activity-based fluorescent assay, ARTD5. Type of data set: biochemical.

The target in data set [4] is T3, ARTD7/PARP15 (Homo sapiens, UniProt Q460N3).
T3 sequence (Q460N3 1-678): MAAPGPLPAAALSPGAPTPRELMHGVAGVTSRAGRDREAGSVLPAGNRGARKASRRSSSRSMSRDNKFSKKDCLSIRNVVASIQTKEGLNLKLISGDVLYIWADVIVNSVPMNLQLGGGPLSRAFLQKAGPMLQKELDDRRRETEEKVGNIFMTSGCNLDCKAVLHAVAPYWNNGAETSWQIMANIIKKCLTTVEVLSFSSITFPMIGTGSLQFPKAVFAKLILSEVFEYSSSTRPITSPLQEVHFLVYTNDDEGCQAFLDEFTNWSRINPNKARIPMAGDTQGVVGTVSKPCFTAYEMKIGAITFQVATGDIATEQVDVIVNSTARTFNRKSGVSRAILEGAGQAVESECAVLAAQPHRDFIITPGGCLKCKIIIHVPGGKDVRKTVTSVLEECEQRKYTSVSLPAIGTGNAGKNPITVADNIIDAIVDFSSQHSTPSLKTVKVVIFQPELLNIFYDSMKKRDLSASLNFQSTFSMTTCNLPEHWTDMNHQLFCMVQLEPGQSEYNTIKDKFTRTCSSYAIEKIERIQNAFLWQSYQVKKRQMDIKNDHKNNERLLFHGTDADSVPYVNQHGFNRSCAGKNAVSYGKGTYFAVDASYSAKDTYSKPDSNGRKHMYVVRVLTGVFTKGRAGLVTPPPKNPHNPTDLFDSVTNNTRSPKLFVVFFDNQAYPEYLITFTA
Nature of the data set: biochemical.

In data set [5] the target is ARTD12/PARP12 (Homo sapiens, UniProt Q9H0J9). Nature of the data set: biochemical.
Data set [6] concerns the target T4, ARTD3/PARP3 (Homo sapiens, UniProt Q9Y6F1).
T4 construct: made in house; host or cells: E. coli
T4 sequence (Q9Y6F1 1-533): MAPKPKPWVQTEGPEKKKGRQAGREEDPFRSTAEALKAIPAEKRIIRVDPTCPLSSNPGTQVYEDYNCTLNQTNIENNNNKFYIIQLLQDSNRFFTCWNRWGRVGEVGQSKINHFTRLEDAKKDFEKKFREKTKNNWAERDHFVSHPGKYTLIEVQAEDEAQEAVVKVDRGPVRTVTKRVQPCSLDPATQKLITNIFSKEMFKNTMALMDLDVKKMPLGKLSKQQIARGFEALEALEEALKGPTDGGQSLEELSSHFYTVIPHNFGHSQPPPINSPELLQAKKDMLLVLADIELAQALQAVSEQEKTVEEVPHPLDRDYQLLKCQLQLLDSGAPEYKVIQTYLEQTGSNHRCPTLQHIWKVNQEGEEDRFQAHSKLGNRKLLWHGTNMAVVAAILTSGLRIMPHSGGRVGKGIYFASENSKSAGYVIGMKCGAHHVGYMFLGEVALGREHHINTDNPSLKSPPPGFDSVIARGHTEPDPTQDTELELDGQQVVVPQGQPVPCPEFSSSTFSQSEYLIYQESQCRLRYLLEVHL
The data set is described as follows: Differential scanning fluorimetry, ARTD3. It counts as binding. The note with it: read-out: ΔTm (DSF), ° C. ± STDEV.

Data set [7] concerns the target T5, ARTD6/PARP5b (Homo sapiens, UniProt Q9H2K2).
T5 construct: made in house; host or cells: E. coli
T5 sequence (Q9H2K2 1-1166): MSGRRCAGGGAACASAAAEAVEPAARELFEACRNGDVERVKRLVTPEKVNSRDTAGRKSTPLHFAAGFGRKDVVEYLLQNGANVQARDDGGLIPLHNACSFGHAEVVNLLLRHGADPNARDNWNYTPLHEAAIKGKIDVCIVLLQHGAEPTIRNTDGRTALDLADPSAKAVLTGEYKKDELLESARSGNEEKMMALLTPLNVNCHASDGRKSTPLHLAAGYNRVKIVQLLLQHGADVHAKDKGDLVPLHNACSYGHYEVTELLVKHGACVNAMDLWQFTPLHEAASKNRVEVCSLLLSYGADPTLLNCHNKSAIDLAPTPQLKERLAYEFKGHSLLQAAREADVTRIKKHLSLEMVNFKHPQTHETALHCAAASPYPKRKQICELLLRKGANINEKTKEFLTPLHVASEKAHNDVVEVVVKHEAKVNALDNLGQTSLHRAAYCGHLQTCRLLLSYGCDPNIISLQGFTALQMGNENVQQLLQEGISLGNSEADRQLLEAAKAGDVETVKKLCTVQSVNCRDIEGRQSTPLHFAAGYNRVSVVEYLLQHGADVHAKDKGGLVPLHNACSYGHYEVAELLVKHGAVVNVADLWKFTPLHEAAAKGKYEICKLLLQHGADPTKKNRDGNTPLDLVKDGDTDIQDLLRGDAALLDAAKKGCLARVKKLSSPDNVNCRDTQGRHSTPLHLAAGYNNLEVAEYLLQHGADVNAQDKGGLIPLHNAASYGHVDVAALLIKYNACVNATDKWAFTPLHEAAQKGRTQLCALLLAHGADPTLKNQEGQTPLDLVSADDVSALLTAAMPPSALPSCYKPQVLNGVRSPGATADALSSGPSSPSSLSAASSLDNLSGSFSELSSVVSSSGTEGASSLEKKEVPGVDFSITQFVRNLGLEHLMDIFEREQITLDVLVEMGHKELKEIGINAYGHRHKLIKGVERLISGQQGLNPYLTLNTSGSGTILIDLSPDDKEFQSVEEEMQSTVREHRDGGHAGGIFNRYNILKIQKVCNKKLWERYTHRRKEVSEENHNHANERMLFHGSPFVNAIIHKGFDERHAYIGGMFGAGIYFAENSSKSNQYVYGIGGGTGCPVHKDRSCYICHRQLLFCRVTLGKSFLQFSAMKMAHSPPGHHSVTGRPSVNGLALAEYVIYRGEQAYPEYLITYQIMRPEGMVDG
Nature of the data set: Activity-based fluorescent assay, ARTD6. It counts as biochemical.

Data set [8] has as its target T6, ARTD4/PARP4 (Homo sapiens, UniProt Q9UKK3). The data set is described as follows: Activity-based fluorescent assay, ARTD4. On the set-up: made in house; host or cells: E. coli. Type of data set: biochemical.
Data set [9] relates to HeLa cells overexpressing ARTD10. The data set is described as follows: Colony formation assay. The note with it: control cells (ARTD10 not induced), 10 μM compound. It counts as cell-based.
Procedure: The different compounds were added as indicated with a final concentration of 10 μM. These were replenished every 48 h. (b) Quantification of the colony formation results. The data represent mean values of three independent experiments performed in duplicates with standard deviations.
The cells were grown in DMEM culture media with 10% FCS, and the plates were incubated at 37° C. with 5% CO2. After 24 h of seeding, over expression of ARTD10 was induced by adding 500 ng/ml doxycycline and the media were also supplemented with the tested compounds at 10 μM concentrations. The cells were allowed to proliferate for the next 10 days, after which they were stained with methylene blue to count the number of surviving colonies. The compounds and doxycycline were replenished every 48 h while fresh media (DMEM supplemented with 10% FCS) was added every four days.
The subject of data set [10] is HeLa cells treated with hydroxyurea. The data set is described as follows: DNA damage experiments with hydroxyurea. Type of data set: cell-based. The note with it: 5 μM OUL35 combined with hydroxyurea, cell confluence at 72 hours. On the procedure:
FIG. 4. […] Cell confluence is indicated at 72 hours (n=5, data present mean±SEM, n.s=not significant, *P<0.05, **P<0.01).
HeLa cells (ATCC) were grown in Dulbecco's modified Eagle's medium (DMEM, Sigma) supplemented with 10% fetal bovine serum (Lonza), 1× penicillin and streptomycin (Sigma) at 37° C. in a 5% CO2 atmosphere. 4000 cells/well were plated on 96-well plates. […] The DMSO content was kept below 0.05% in all experiments. The 96-well plates were placed in an IncuCyte ZOOM live cell imaging system (Essen BioScience) to follow the cell growth. The plates were scanned in the IncuCyte at 2 hour intervals for 72 hours. Data were analyzed by the IncuCyte Zoom software (Essen BioScience). The results are representative of three (cell growth curves) or five independent experiments (72 h end points) each done in six replicates. P values less than 0.05 were considered as significant (n.s=not statistically significant, *P<0.05, **P<0.01).

Data set [11] concerns the target T4, ARTD3/PARP3. The data set is described as follows: Activity-based fluorescent assay, ARTD3. Type of data set: biochemical.
Data set [12] deals with T6, ARTD4/PARP4. The data set is described as follows: Differential scanning fluorimetry, ARTD4. The note with it: read-out: ΔTm (DSF), ° C. ± STDEV.

Some results are limits rather than exact numbers.

T6 sequence (Q9UKK3 whole entry): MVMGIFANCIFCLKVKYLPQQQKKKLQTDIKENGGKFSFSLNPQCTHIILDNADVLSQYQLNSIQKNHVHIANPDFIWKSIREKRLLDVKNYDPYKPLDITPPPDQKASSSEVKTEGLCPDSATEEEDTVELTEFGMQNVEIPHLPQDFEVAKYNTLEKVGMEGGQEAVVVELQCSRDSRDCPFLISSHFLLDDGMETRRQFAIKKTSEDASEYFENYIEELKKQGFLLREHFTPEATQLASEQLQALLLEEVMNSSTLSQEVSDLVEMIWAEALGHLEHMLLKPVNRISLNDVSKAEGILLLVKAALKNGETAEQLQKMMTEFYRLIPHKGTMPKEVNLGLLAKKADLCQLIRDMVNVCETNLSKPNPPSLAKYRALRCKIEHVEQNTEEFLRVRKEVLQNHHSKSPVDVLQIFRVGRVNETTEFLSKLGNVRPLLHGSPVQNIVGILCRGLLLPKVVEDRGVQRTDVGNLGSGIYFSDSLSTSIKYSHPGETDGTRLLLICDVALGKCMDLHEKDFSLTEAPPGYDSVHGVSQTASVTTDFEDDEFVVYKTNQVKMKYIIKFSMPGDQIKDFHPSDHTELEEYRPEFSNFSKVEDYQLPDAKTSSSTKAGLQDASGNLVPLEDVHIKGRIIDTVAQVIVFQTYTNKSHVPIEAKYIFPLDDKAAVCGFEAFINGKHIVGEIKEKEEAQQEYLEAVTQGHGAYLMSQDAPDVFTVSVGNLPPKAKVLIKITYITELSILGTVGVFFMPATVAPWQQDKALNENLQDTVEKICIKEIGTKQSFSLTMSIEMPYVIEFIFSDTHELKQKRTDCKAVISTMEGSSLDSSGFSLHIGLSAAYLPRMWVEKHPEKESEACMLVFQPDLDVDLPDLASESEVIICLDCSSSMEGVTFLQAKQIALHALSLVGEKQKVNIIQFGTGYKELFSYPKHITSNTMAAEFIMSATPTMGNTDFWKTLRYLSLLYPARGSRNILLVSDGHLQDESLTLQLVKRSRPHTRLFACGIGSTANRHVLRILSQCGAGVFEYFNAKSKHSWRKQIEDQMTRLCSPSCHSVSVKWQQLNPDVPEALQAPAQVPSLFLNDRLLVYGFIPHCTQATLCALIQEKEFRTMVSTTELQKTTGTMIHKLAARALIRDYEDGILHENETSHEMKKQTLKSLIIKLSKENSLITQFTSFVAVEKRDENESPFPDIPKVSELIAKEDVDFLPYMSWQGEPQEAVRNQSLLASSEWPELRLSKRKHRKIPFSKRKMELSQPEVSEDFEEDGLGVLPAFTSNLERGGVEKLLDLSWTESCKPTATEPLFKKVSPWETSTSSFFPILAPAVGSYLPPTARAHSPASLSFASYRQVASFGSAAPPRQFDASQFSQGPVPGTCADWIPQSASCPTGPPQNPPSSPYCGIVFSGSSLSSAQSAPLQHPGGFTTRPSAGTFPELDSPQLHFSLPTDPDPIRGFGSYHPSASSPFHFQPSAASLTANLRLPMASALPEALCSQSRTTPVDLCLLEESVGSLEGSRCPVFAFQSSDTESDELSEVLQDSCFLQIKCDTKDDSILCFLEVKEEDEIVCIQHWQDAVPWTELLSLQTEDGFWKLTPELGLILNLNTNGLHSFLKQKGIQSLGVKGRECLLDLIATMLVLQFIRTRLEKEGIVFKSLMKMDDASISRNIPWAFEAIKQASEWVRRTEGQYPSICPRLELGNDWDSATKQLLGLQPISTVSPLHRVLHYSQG
ARTD12/PARP12, sequence (Q9H0J9 whole entry): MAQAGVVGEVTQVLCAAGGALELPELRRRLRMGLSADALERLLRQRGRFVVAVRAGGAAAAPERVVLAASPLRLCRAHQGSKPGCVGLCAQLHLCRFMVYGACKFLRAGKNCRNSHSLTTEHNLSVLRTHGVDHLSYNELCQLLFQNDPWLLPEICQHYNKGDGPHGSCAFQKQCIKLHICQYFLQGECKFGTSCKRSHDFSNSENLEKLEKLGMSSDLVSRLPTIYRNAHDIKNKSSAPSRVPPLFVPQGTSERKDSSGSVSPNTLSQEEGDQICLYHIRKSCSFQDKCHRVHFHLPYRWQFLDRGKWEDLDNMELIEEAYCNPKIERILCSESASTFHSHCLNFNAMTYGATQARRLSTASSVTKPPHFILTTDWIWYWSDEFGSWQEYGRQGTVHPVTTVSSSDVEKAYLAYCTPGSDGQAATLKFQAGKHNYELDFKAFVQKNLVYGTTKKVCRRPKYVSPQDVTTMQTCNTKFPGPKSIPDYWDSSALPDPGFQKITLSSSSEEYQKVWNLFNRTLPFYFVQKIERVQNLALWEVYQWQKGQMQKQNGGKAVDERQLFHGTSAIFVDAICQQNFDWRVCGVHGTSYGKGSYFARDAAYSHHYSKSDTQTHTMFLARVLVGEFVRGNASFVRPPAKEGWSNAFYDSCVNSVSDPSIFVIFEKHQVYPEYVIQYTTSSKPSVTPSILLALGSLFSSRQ

For `NC(=O)c1ccc(Oc2ccc(C(N)=O)cc2)cc1` [OUL35, 4,4′-oxydibenzamide], the cytotoxic effect result in data set [1] is “no cytotoxic effect”. Moreover, the “stabilization of catalytic domain (DSF)” value in [2] (100 μM OUL35) is “stabilized the catalytic domains”. Moreover, the ΔTm at 100 µM in data set [2] (read-out: ΔTm (DSF), ° C. ± STDEV) amounted to 2.45 ± 0.11 °C; in data set [6] it was 0.09 ± 0.32 °C; in [12], 0.84 ± 0.14 °C. For the same compound, the IC50 was greater than 100 µM in [3]; greater than 20 µM in [4]; greater than 100 µM in [5]; greater than 100 µM in data set [7]; 22.6 µM in [8]; greater than 100 µM in [11]. In data set [8], the “pIC50 ± SEM” value was 4.65 ± 0.17. For the same compound, in data set [9], the “toxicity in the control cells” value is recorded as “not toxic to control cells”. In addition, in data set [10], the “sensitivity to hydroxyurea-induced DNA damage” value is on record as “more sensitive to DNA damage in the presence of OUL35”.

The record behind these values is patent US11096909B2, “Compounds for use in the treatment of cancer” (University of Oulu, priority 2016, dated 2021).
